From publication PMC8589628, “Characterization and Antimicrobial Studies of Iturin-Like and Bogorol-Like Lipopeptides From Brevibacillus spp. Strains GI9 and SKDU10” (Frontiers in Microbiology, 2021)
Like-named read-outs stand apart in the source and are kept apart here. Peptide text beside a SMILES is read from it. * marks the point of attachment. X1 = CC(C)CCCCCCCCCCCCC(=O)*

How the values were obtained:
[1] = Effect of temperature and pH on activity (well-diffusion assay); assay type: physicochemical
Procedure: Sensitivities of purified antimicrobial compounds to temperature, pH, and hydrolytic enzymes were confirmed by performing well-diffusion assay. pH stability was determined by adjusting the pH of aliquots of purified antimicrobial compounds from 2.0 to 12.0 (using 10 mM HCl or NaOH) and incubating at room temperature for 4 h. The residual activity was measured after neutralizing the sample to pH 7.0. To determine temperature susceptibility, antimicrobial compounds were incubated at different temperatures ranging from 37 to 100°C for 1 h and 121°C for 15 min, and then residual antimicrobial activity was determined after cooling the samples to room temperature. Similarly, proteolytic enzymes such as trypsin and proteinase K were used at three different concentrations (0.1, 1.0, and 5.0 mg/ml) to ensure their effect on the activity of antimicrobial compounds. The enzyme solutions were prepared in 50 mM phosphate buffer (pH 7.0). All reactions were performed at 37°C for 6 h followed by deactivation of the enzyme by heating the solution in boiling water for 5 min before performing the activity assay.

V. cholerae MTCC 3904 [2] = assay: Time kill assay; assay type: cell-based; conditions: in PBS, CFU count
Procedure: Killing kinetics of purified compounds was performed using cells of S. aureus MTCC 1430, V. cholerae MTCC 3904, and C. albicans MTCC 183. Test strains were grown to obtain OD between 0.2 and 0.3 (OD 600 nm), centrifuged, and washed thrice with sterile PBS. Pellets were suspended in PBS and treated with different concentrations of active compounds. Cells after treatment were washed, resuspended, and serially diluted cell suspensions were plated on NA plates. After overnight incubation at 37°C, CFU were recorded ([Singh et al., 2021]).

V. cholerae MTCC 3904 [3] = assay: TEM of treated cells; assay type: cell-based; conditions: V. cholerae MTCC 3904, 1X MIC, 30 min, 37°C
Procedure: Effect of antimicrobial compounds on cell membrane of test organisms was determined by transmission electron microscopy (TEM). Test strains, S. aureus MTCC 1430, V. cholerae MTCC 3904, and C. albicans MTCC 183 were cultured to mid-log phase, washed, and re-suspended in 1X PBS (OD 600 nm 0.2). The cell suspensions were incubated (37°C) with 1X MIC of purified antimicrobial compounds for 30 min. Cells after treatment were centrifuged, washed twice with PBS. For TEM, cells of S. aureus MTCC 1430 and V. cholerae MTCC 3904 were subjected to negative stain with 0.1% (w/v) sodium phosphotungstate (PTA, Sigma, United States) in water for 1 min, on a carbon-coated copper grid with 300 mesh (Polyscience, United States) and observed under transmission electron microscope (JEOL JEM 2100, United States) ([Raje et al., 2006]). For SEM, C. albicans MTCC 183 cells were immobilized on poly L-lysine glazed glass slides and incubated at 4°C for 2 h. Cells were fixed using Karnovsky’s fixative and serially dehydrated with gradient of ethanol, freeze dried, and platinum coated. ZEISS EV040 (United States) scanning electron microscope was employed to photograph the cells ([Raje et al., 2006]). Spores of A. brassicicola MTCC 2102 were treated with 2X MIC of lipopeptides for 2 h and observed under phase-contrast microscope (Nickon H600L, Japan). […]

V. cholerae MTCC 3904 [4] = assay type: cell-based, Vibrio cholera
Procedure: The antimicrobial activity of HPLC purified compounds was determined against various test strains including S. aureus MTCC 1430, Vibrio cholera MTCC 3904, Bacillus subtilis MTCC 121, Listeria monocytogenes MTCC 839, C. albicans MTCC 183, C. albicans MTCC 1637, C. albicans MTCC 227, C. tropicalis MTCC 184, C. glabrata MTCC 3019, and C. inconspicua MTCC 1074. Antimicrobial activity was also tested against clinical Candida strains and phytopathogenic fungi viz. Fusarium moniliforme MTCC 158, Alternaria brassicicola MTCC 2102 and Colletotrichum acutatum MTCC 1037. Bacterial and Candida test strains were grown in NB and yeast malt broth (YMB), respectively. Fungal test strains were grown in potato dextrose broth (PDB). Minimum inhibitory concentrations (MICs) of purified compounds were evaluated against test organisms by using a microtiter plate dilution assay. Mid-log-phase test strains (5 × 10^5 CFU/ml) were incubated in a 96-well plate with different concentrations of the lipopeptides for 24–48 h at 37°C (final volume of 200 μl). OD was measured at 600 nm after 24 and 48 h for bacteria and yeast, respectively, using an ELISA microplate reader (Thermo Scientific, United States). MIC against phytopathogenic fungi was determined using the 96-well microtiter plate method ([Sharma et al., 2020]).

[5] = tested on: A. brassicicola MTCC 2102; assay: Protection of tomato slices and grapes from fungal spores; design: species or system Alternaria brassicicola; conditions: 500 μl of 2 mg/ml lipopeptide, then 50 μl spore suspension (10^7 conidia per ml); 25°C, 4 days; three replicates
Procedure: The surface of the tomatoes and grapes was sterilized with 5% NaOCl for 5 min and rinsed three times with plenty of sterile water. After sterilization, tomatoes were cut into slices and wounds of 3 mm were inflicted with a sterile scalpel on the surface of the grapes. Tomato slices and grapes were divided into four groups. Contents of group 1 were treated with water only (negative control). Contents of group 2 were treated with 50 μl of a spore suspension (spores 10^7 conidia per ml) of A. brassicicola MTCC 2102 (positive control without treatment). Contents of group 3 were first treated with 500 μl of 2 mg/ml solution of purified lipopeptides separately and after adsorption of lipopeptides, fungal spores were added. Contents of the fourth group were treated with purified lipopeptides only without addition of fungal spores. Tomato slices and grapes from all four groups were incubated at 25°C under controlled humidity conditions for 4 days and observed. Each treatment was performed with three biological and technical replicates.

[6] = Temperature 37 °C, 1h (pH 7.0), well-diffusion assay
[7] = Temperature 60 °C, 1h (pH 7.0), well-diffusion assay
[8] = Temperature 80 °C, 1h (pH 7.0), well-diffusion assay
[9] = Temperature 100 °C, 1h (pH 7.0), well-diffusion assay
[10] = Temperature 121 °C, 15 min (304 kPa) (pH 7.0), well-diffusion assay
[11] = pH 2.0, 4h/ 25 °C, neutralised to pH 7.0 before well-diffusion assay
[12] = pH 4.0, 4h/ 25 °C, neutralised to pH 7.0 before well-diffusion assay
[13] = pH 6.0, 4h/ 25 °C, neutralised to pH 7.0 before well-diffusion assay
[14] = pH 7.0, 4h/ 25 °C, well-diffusion assay
[15] = pH 8.0, 4h/ 25°C, neutralised to pH 7.0 before well-diffusion assay
[16] = pH 10.0, 4h/ 25 °C, neutralised to pH 7.0 before well-diffusion assay
[17] = pH 12.0, 4h/ 25 °C, neutralised to pH 7.0 before well-diffusion assay

Compound | Residual activity [1, 6] [%] | Residual activity [1, 7] [%] | Residual activity [1, 8] [%] | Residual activity [1, 9] [%] | Residual activity [1, 10] [%] | Residual activity [1, 11] [%] | Residual activity [1, 12] [%] | Residual activity [1, 13] [%] | Residual activity [1, 14] [%] | Residual activity [1, 15] [%] | Residual activity [1, 16] [%] | Residual activity [1, 17] | Time to complete reduction in the load (V. cholerae MTCC 3904 [2]; V. cholerae MTCC 3904, 1X MIC) [min] | Time to complete reduction in the load (V. cholerae MTCC 3904 [2]; V. cholerae MTCC 3904, 2X MIC) [min] | Effect on cells (TEM) (V. cholerae MTCC 3904 [3]) | MIC value (V. cholerae MTCC 3904 [4]; MTCC 3904, 24 h) [µg/mL] | Fungal growth on the surface of treated tomato and grape slices inoculated with spores [5] | Thermostability (activity after exposure to 121°C for 15 min, autoclaving) [1] | MIC value (V. cholerae MTCC 3904 [4]; V. cholerae MTCC 3904, NB, 5 × 10^5 CFU/ml, 37°C, OD 600 nm after 24 h, 10–550 μg/ml in 5 μg/ml increments) [µg/mL]
CC(C)CCCCCCCCCCCCC(=O)N[C@H](C(=O)NCC(=O)N[C@@H](C)C(=O)N[C@@H](CO)C(=O)N[C@@H](Cc1c[nH]cn1)C(=O)N[C@@H](CCC(N)=O)C(=O)N[C@@H](CCC(N)=O)C(=O)O)[C@@H](C)O [ILL] (X1-TGASHQQ-OH; N-terminus assumed) | 100 | 100 | 100 | 100 | 100 | 43 | 95.5 | 100 | 100 | 100 | 100 | Nil | ≤ 60 | ≤ 60 | lysis with accumulation of debris on cell surface, altered morphology, and shrinkage | 105 to 115 | no fungal growth |  | 
Dhb-Tyr-Orn-Ile-Val-Val-Lys-Val-Leu-Asp-Val-Glu [BLL, bogorol like lipopeptide purified from Brevibacillus sp. strain SKDU10; 12 amino acids and C17 hydroxy fatty acid side chain] | 100 | 100 | 100 | 100 | 100 | 52 | 100 | 100 | 100 | 100 | 94.3 | Nil | ≤ 30 | ≤ 30 | irregularities in structure with rupturing of cell wall and lysis |  | no fungal growth | thermostable | 140 to 150
